The target of assay [1] is human VEGFR2 kinase (Homo sapiens, UniProt P35968). Kind of assay: KDR ELISA assay. The format is biochemical. A general note: In an ELISA, binding on a coated surface is turned into a signal by an enzyme label.
Assay [2] relates to KDR. As to conditions: read-out: Reported KDR Inhibition IC50; cited from earlier work.
Assay [3] relates to KDR. As to conditions: read-out: reported IC50 value; final ATP concentration 2 μM; cited from earlier work.

Like-named read-outs stand apart in the source and are kept apart here.

human VEGFR2 kinase, sequence (P35968 790-1356 limits assumed): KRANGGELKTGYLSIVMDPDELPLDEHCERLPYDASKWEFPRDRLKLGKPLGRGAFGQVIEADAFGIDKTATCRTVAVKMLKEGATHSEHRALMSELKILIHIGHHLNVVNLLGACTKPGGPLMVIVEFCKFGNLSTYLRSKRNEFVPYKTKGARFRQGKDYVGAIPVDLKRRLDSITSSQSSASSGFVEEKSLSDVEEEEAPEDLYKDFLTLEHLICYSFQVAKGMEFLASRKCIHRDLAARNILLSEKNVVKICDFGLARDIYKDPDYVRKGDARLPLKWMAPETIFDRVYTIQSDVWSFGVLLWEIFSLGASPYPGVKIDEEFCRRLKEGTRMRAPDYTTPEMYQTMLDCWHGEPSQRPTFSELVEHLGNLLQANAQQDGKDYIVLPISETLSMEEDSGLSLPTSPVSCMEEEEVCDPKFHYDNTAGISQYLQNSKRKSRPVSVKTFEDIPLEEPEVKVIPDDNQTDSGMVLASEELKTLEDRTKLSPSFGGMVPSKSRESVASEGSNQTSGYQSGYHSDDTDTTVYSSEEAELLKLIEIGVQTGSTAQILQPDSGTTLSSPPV

On to `COc1cc2ncnc(Nc3ccc(Cl)cc3)c2cc1OC` [Compound 10, (4-Chloro-phenyl)-(6,7-dimethoxy-quinazolin-4-yl)-amine], for which the “KDR assay activity in words” value in assay [1] is “relatively inactive”. The IC50 in assay [2] was 800 nM.
Molecule `COc1cc2ncnc(Nc3ccc(C)c(F)c3)c2cc1OC` [Compound 14, (6,7-Dimethoxy-quinazolin-4-yl)-(3-fluoro-4-methyl-phenyl)-amine] had an IC50 in assay [1] of 2500 nM.
Consider `COc1ccc(-c2cnc3c(-c4ccsc4)cnn3c2)cc1` [Compound 21, 6-(4-Methoxy-phenyl)-3-thiophen-3-yl-pyrazolo[1,5-a]pyrimidine], for which the “KDR assay activity in words” value in assay [1] is on record as “active”.
For `COc1cc2nccc(Oc3ccc(NC(=O)Nc4ccc(F)cc4F)c(F)c3)c2cc1OC` [Ki8751, reference compound], the IC50 was 0.9 nM in assay [3] and 800 nM in assay [1] (read-out: KDR IC50, 20 μM ATP).

As usually defined, the IC50 is the midpoint of a concentration-inhibition curve.
